Laboratory results: patent US20120184504A1, “"The Use of a PAR-1 Antagonist in Combination with a P2Y12 ADP Receptor Antagonist for Inhibition of Thrombosis"” (priority 2009, published 2012)

Key:
[1] = system: platelet aggregation induced by TRAP (3 μM); test: Ex vivo whole blood platelet aggregation induced by TRAP; type: in vivo, cynomolgus monkeys
Procedure: (§1) Animals instrumented to produce CFRs were administered SCH 602539, cangrelor, or a combination of SCH 602539 and cangrelor. The dosing regimens of SCH 602539 were selected to provide a broad range of inhibition of platelet aggregation induced by 1 μM thrombin receptor agonist peptide (TRAP), whereas the doses of cangrelor were selected to achieve 50%-60% inhibition of platelet aggregation induced by 10 μM ADP (the degree of inhibition obtained with clopidogrel). Group 1 received drug vehicle only (20% hydroxypropyl betacyclodextran or saline, 2 mL i.v.). Group 2 received SCH 602539 dissolved in 20% hydroxypropyl betacyclodextran administered as sequential i.v. boluses of 0.1, 0.3, or 1 mg/kg, at 30-minute intervals. Group 3 received cangrelor dissolved in saline and administered as an intravenous infusion of 0.1, 0.2, or 0.3 μg/kg/min for 30 minutes each. Group 4 received a combination of SCH 602539 bolus plus cangrelor infusion (at respective doses of: 1) 0.05 mg/kg+0.05 μg/kg/min; 2) 0.1 mg/kg+0.1 μg/kg/min; and 3) 0.15 mg/kg+0.1 μg/kg/min. The three dose regimens within each group were administered sequentially over the consecutive 30-minute periods coinciding with the re-induction of endothelial injury. Study drug or vehicle was administered after stable CFRs were achieved, and upon the completion of a 30-minute baseline CFR collection period, drug(s) or vehicle were administered incrementally (every 30 minutes) either as a bolus (SCH 602539) or as an infusion (cangrelor), and their effects on CFRs were monitored in the next three 30-minute observation periods. Blood samples (3 mL) were collected from the femoral arterial catheter at the end of each 30-minute observation period for assessment of ex vivo platelet aggregation and coagulation parameters.
(§2) Platelet aggregation studies were performed ex viva on blood samples obtained from the monkeys subjected to the Folts model, using a ChronoLog whole blood aggregometer (Model 540VS, Havertown, Pa.). Briefly, 0.5 mL of blood was incubated with 0.5 mL of normal saline at 37° C. in a cuvette containing a stir bar for 2 minutes. Platelet agonists used in this study included TRAP (3 μM), ADP (10 μM), the thromboxane A2 mimetic U46619 (10 μM), and collagen (3 μg/mL). Platelet aggregation was monitored for 5 minutes following the addition of the agonist. The peak aggregation response was recorded in ohms. In addition, standard coagulation parameters, including prothrombin time (PT), activated partial thromboplastin time (APTT), and activated clotting time (ACT), were assessed.

[2] = Activated partial thromboplastin time (APTT) in plasma, Folts model animals; type: in vivo, cynomolgus monkeys; conditions: for APTT: i.v.; for effect on APTT: tested doses
Procedure: as §1, §2
PT and APTT assays were performed with plasma, while the ACT assay was performed with whole blood. Data are presented as mean±SEM (n=5-6/group).

| APTT ([2]; Cangrelor 0.1 μg/kg/min × 30 min, plasma, baseline 22.5 ± 1.6) | APTT ([2]; Cangrelor 0.2 μg/kg/min × 30 min, baseline 22.5 ± 1.6) | APTT ([2]; Cangrelor 0.3 μg/kg/min × 30 min, baseline 22.5 ± 1.6) | SMILES | Aggregation, TRAP ([1]; SCH 602539 0.1 mg/kg, baseline 14 ± 3) | Aggregation, TRAP ([1]; SCH 602539 0.3 mg/kg, baseline 14 ± 3) | inhibition of ex vivo platelet aggregation induced by 3 μM TRAP ([1]; two highest doses of SCH 602539 (0.3 mg/kg and 1 mg/kg)) | APTT ([2]; SCH 602539 0.1 mg/kg, bolus, plasma, baseline 22.8 ± 1.7) | APTT ([2]; SCH 602539 0.3 mg/kg, bolus, baseline 22.8 ± 1.7) | APTT ([2]; SCH 602539 1.0 mg/kg, bolus, baseline 22.8 ± 1.7) | effect on APTT [2] | Aggregation, TRAP ([1]; Cangrelor 0.1 μg/kg/min, baseline 13 ± 3) | Aggregation, TRAP ([1]; Cangrelor 0.2 μg/kg/min, baseline 13 ± 3) | Aggregation, TRAP ([1]; Cangrelor 0.3 μg/kg/min, baseline 13 ± 3) | effect on aggregation stimulated by 3 μM TRAP ([1]; cangrelor 0.2 and 0.3 μg/kg/min) |
| --- | --- | --- | --- | --- | --- | --- | --- | --- | --- | --- | --- | --- | --- | --- |
| – | – | – | CCOC(=O)N[C@@H]1CC[C@@H]2[C@@H](C1)C[C@H]1C(=O)O[C@H](C)[C@H]1[C@H]2/C=C/c1ccc(-c2ccccn2)cn1 [SCH 602539] | 9 ± 4 ohms | 2 ± 2 ohms | > 80% | 22.4 ± 1.5 s | 23.4 ± 2.2 s | 25.4 ± 4.9 s | no effect | – | – | – | – |
| 23.6 ± 2.6 s | 22.1 ± 1.3 s | 22.2 ± 2.0 s | CSCCNc1nc(SCCC(F)(F)F)nc2c1ncn2[C@@H]1O[C@H](COP(=O)(O)OP(=O)(O)C(Cl)(Cl)P(=O)(O)O)[C@@H](O)[C@H]1O [Cangrelor] | – | – | – | – | – | – | no effect | 12 ± 3 ohms | 12 ± 3 ohms | 9 ± 3 ohms | did not interfere |
